In patent US7495104B2, “Quinoline or quinazoline derivatives inhibiting auto-phosphorylation of fibroblast growth factor receptors” (Kirin Beer Kabushiki Kaisha, priority 2001, dated 2009):
pIC50: −log10 of the molar value. Structures can show the parent of a compound that is named as a salt.

Molecular target: Bek (Homo sapiens, UniProt P21802)
Assay: Inhibitory activity against Bek-autophosphorylation using ELISA method in OCUM-2MD3 cells
Assay type: cell-based
Details: 1 hr with compound, read-out: IC50 (concentration necessary for inhibiting 50% of Bek-phosphorylation)
Procedure, shortened: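 Sandwich ELISA (anti-phosphotyrosine capture, anti-Bek detection, peroxidase, 450 nm) measured Bek autophosphorylation in OCUM-2MD3 lysates after 1 hr compound treatment at 37° C in 0.1% serum medium. IC50 derived by scaling between no-drug (100%) and excess positive control at 1000 nM (0%).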

Chain of Bek (P21802 431-767 limits assumed): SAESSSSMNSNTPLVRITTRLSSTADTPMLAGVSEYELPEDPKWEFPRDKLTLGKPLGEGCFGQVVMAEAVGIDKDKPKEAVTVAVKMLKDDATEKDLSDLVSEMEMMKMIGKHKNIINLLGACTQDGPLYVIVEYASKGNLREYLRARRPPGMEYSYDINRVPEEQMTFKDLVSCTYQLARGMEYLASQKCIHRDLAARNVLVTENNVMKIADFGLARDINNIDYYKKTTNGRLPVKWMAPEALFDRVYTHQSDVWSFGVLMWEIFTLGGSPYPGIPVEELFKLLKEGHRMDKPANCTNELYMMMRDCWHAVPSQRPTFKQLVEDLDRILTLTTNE

`COc1cc2c(Oc3ccc(NC(=O)NCCC(C)(C)C)c(Cl)c3)ccnc2cc1OCCN1CC(C)OC(C)C1` (stereo not shown) [Compound 125, 1-(2-Chloro-4-{7-[2-(2,6-dimethyl-morpholin-4-yl)-ethoxy]-6-methoxy-quinolin-4-yloxy}-phenyl)-3-(3,3-dimethyl-butyl)-urea] and `COc1cc2c(Oc3ccc(NC(=O)NCCC(C)(C)C)cc3Cl)ccnc2cc1OCCN1CC(C)OC(C)C1` (stereo not shown) [Compound 127, 1-(3-Chloro-4-{7-[2-(2,6-dimethyl-morpholin-4-yl)-ethoxy]-6-methoxy-quinolin-4-yloxy}-phenyl)-3-(3,3-dimethyl-butyl)-urea] are within 0.2 log units of each other in pIC50: 7.89 for the first, 8.03 for the second.

First: COc1cc2c(Oc3ccc(NC(=O)NCCC(C)(C)C)cc3Cl)ccnc2cc1OCCN1CCOCC1 [Compound 126, 1-{3-Chloro-4-[6-methoxy-7-(2-morpholin-4-yl-ethoxy)-quinolin-4-yloxy]-phenyl}-3-(3,3-dimethyl-butyl)-urea]
Second: COc1cc2c(Oc3ccc(NC(=O)NCCC(C)(C)C)cc3)ccnc2cc1OCCCN1CCOCC1 [Compound 155, 1-(3,3-Dimethyl-butyl)-3-{4-[6-methoxy-7-(3-morpholin-4-yl-propoxy)-quinolin-4-yloxy]-phenyl}-urea hydrochloride]
The pIC50 of the first is 0.34 log units higher: 7.88 for the first, 7.54 for the second. The first is the more potent here.

Compared with `COc1cc2c(Oc3ccc(NC(=O)NCCC(C)(C)C)cc3F)ccnc2cc1OCCN1CC(C)OC(C)C1` (stereo not shown) [Compound 128, 1-(3,3-Dimethyl-butyl)-3-(4-{7-[2-(2,6-dimethyl-morpholin-4-yl)-ethoxy]-6-methoxy-quinolin-4-yloxy}-3-fluoro-phenyl)-urea], `COc1cc2c(Oc3ccc(NC(=O)NCCC(C)(C)C)cc3F)ccnc2cc1OCCN1C(C)CCCC1C` (stereo not shown) [Compound 132, 1-(3,3-Dimethyl-butyl)-3-(4-{7-[2-(2,6-dimethyl-piperidin-1-yl)-ethoxy]-6-methoxy-quinolin-4-yloxy}-3-fluoro-phenyl)-urea] is lower in pIC50: greater than 8.00 for the first, 6.83 for the second. The first is the more potent here.

First: COc1cc2c(Oc3ccc(NC(=O)NCCC(C)(C)C)cc3F)ccnc2cc1OCCN1CCCCC1 [Compound 129, 1-(3,3-Dimethyl-butyl)-3-{3-fluoro-4-[6-methoxy-7-(2-piperidin-1-yl-ethoxy)-quinolin-4-yloxy]-phenyl}-urea]
Second: COc1cc2c(Oc3ccc(NC(=O)NCCC(C)(C)C)cc3)ccnc2cc1OCCCN1CCCCC1 [Compound 154, 1-(3,3-Dimethyl-butyl)-3-{4-[6-methoxy-7-(3-piperidin-1-yl-propoxy)-quinolin-4-yloxy]-phenyl}-urea hydrochloride]
The pIC50 of the first is 0.29 log units lower: 7.32 for the first, 7.61 for the second. The second is the more potent here.

`COc1cc2c(Oc3ccc(NC(=O)NCCC(C)(C)C)c(F)c3)ccnc2cc1OCCN1C(C)CCCC1C` (stereo not shown) [Compound 130, 1-(3,3-Dimethyl-butyl)-3-(4-{7-[2-(2,6-dimethyl-piperidin-1-yl)-ethoxy]-6-methoxy-quinolin-4-yloxy}-2-fluoro-phenyl)-urea] and `COc1cc2c(Oc3ccc(NC(=O)NCCC(C)(C)C)c(F)c3)ccnc2cc1OCCN1C(C)(C)CCCC1(C)C` [Compound 131, 1-(3,3-Dimethyl-butyl)-3-(2-fluoro-4-{6-methoxy-7-[2-(2,2,6,6-tetramethyl-piperidin-1-yl)-ethoxy]-quinolin-4-yloxy}-phenyl)-urea] are the same in pIC50: 6.79 for the first, 6.79 for the second.

`COc1cc2c(Oc3ccc(NC(=O)NC4CCCC(C)(C)C4)c(F)c3)ccnc2cc1OCCN1CCOCC1` (stereo not shown) [Compound 133, 1-(3,3-Dimethyl-cyclohexyl)-3-{2-fluoro-4-[6-methoxy-7-(2-morpholin-4-yl-ethoxy)-quinolin-4-yloxy]-phenyl}-urea] and `COc1cc2c(Oc3ccc(NC(=O)NC4CCCC(C)(C)C4)c(F)c3)ccnc2cc1OCCN1CC(C)OC(C)C1` (stereo not shown) [Compound 134, 1-(3,3-Dimethyl-cyclohexyl)-3-(4-{7-[2-(2,6-dimethyl-morpholin-4-yl)-ethoxy]-6-methoxy-quinolin-4-yloxy}-2-fluoro-phenyl)-urea] are within 0.2 log units of each other in pIC50: 8.04 for the first, 7.93 for the second.

First: COc1cc2nccc(Oc3ccc(NC(=O)NCCC(C)(C)C)c(C)c3)c2cc1OC [Compound 136, 1-[4-(6,7-Dimethoxy-quinolin-4-yloxy)-2-methyl-phenyl]-3-(3,3-dimethyl-butyl)-urea]
Second: COc1cc(Oc2ccnc3cc(OC)c(OC)cc23)ccc1NC(=O)NCCC(C)(C)C [Compound 138, 1-[4-(6,7-Dimethoxy-quinolin-4-yloxy)-2-methoxy-phenyl]-3-(3,3-dimethyl-butyl)-urea]
The pIC50 of the first is 0.75 log units higher: 7.25 for the first, 6.50 for the second. The first is the more potent here.

First: COc1cc2nccc(Oc3ccc(NC(=O)NCCC(C)(C)C)cc3C)c2cc1OC [Compound 137, 1-[4-(6,7-Dimethoxy-quinolin-4-yloxy)-3-methyl-phenyl]-3-(3,3-dimethyl-butyl)-urea]
Second: COc1cc2nccc(Oc3ccc(NC(=O)NCCC(C)(C)C)cc3OC)c2cc1OC [Compound 139, 1-[4-(6,7-Dimethoxy-quinolin-4-yloxy)-3-methoxy-phenyl]-3-(3,3-dimethyl-butyl)-urea]
The pIC50 of the first is 1.24 log units higher: 7.18 for the first, 5.94 for the second.

`COc1cc2nccc(Oc3c(Cl)cc(NC(=O)NCCC(C)(C)C)cc3Cl)c2cc1OC` [Compound 140, 1-[3,5-Dichloro-4-(6,7-dimethoxy-quinolin-4-yloxy)-phenyl]-3-(3,3-dimethyl-butyl)-urea] and `COc1cc2nccc(Oc3cc(C)c(NC(=O)NCCC(C)(C)C)cc3C)c2cc1OC` [Compound 142, 1-[4-(6,7-Dimethoxy-quinolin-4-yloxy)-2,5-dimethyl-phenyl]-3-(3,3-dimethyl-butyl)-urea] are within 0.2 log units of each other in pIC50: 6.76 for the first, 6.58 for the second.

`COc1cc2nccc(Oc3ccc(NC(=O)NCCC(C)(C)C)c(C)c3C)c2cc1OC` [Compound 141, 1-[4-(6,7-Dimethoxy-quinolin-4-yloxy)-2,3-dimethyl-phenyl]-3-(3,3-dimethyl-butyl)-urea] and `COc1cc2nccc(Oc3ccc(NC(=O)NCCC(C)(C)C)c(C(F)(F)F)c3)c2cc1OC` [Compound 150, 1-[4-(6,7-Dimethoxy-quinolin-4-yloxy)-2-trifluoromethyl-phenyl]-3-(3,3-dimethyl-butyl)-urea] are within 0.2 log units of each other in pIC50: 7.23 for the first, 7.20 for the second.

`COc1cc2nccc(Oc3ccc(NC(=O)NC(C)(C)CC(C)(C)C)cc3)c2cc1OC` [Compound 143, 1-[4-(6,7-Dimethoxy-quinolin-4-yloxy)-phenyl]-3-(1,1,3,3-tetramethyl-butyl)-urea] and `COc1cc2nccc(Oc3ccc(NC(=O)NC(C)(C)CC(C)(C)C)c(Cl)c3)c2cc1OC` [Compound 144, 1-[2-Chloro-4-(6,7-dimethoxy-quinolin-4-yloxy)-phenyl]-3-(1,1,3,3-tetramethyl-butyl)-urea] are within 0.2 log units of each other in pIC50: 6.72 for the first, 6.70 for the second.

Compared with `COc1cc2c(Oc3ccc(NC(=O)NCCC(C)(C)C)cc3)ccnc2cc1OCCCBr` [Compound 147, 1-{4-[7-(3-Bromo-propoxy)-6-methoxy-quinolin-4-yloxy]-phenyl}-3-(3,3-dimethyl-butyl)-urea], `COc1cc2c(Oc3ccc(NC(=O)NCCC(C)(C)C)cc3)ccnc2cc1OCCCCBr` [Compound 148, 1-{4-[7-(4-Bromo-butoxy)-6-methoxy-quinolin-4-yloxy]-phenyl}-3-(3,3-dimethyl-butyl)-urea] is 0.40 log units lower in pIC50: 6.18 for the first, 5.78 for the second. The first is the more potent here.

First: COc1cc2nccc(Oc3ccc(NC(=O)NCCC(C)(C)CC(C)(C)C)c(F)c3)c2cc1OC [Compound 149, 1-[4-(6,7-Dimethoxy-quinolin-4-yloxy)-2-fluoro-phenyl]-3-(3,3,5,5-tetramethyl-hexyl)-urea]
Second: COc1cc2c(Oc3ccc(NC(=O)NCCC(C)(C)C)c(Cl)c3)ccnc2cc1OCCCl [Compound 160, 1-{2-Chloro-4-[7-(2-chloro-ethoxy)-6-methoxy-quinolin-4-yloxy]-phenyl}-3-(3,3-dimethyl-butyl)-urea]
The pIC50 of the first is 0.97 log units lower: 6.66 for the first, 7.63 for the second.

`COc1cc2c(Oc3ccc(NC(=O)NCCC(C)(C)C)cc3)ccnc2cc1OCCCCl` [Compound 151, 1-{4-[7-(3-Chloro-propoxy)-6-methoxy-quinolin-4-yloxy]-phenyl}-3-(3,3-dimethyl-butyl)-urea] and `COc1cc2c(Oc3ccc(NC(=O)NCCC(C)(C)C)cc3)ccnc2cc1OCCCCCl` [Compound 153, 1-{4-[7-(4-Chloro-butoxy)-6-methoxy-quinolin-4-yloxy]-phenyl}-3-(3,3-dimethyl-butyl)-urea] are within 0.2 log units of each other in pIC50: 6.65 for the first, 6.62 for the second.

Going from `COc1cc2c(Oc3ccc(NC(=O)NCCC(C)(C)C)cc3)ccnc2cc1OCCCl` [Compound 152, 1-{4-[7-(2-Chloro-ethoxy)-6-methoxy-quinolin-4-yloxy]-phenyl}-3-(3,3-dimethyl-butyl)-urea] to `COc1cc2c(Oc3ccc(NC(=O)NCCC(C)(C)C)c(Cl)c3)ccnc2cc1OCCCCl` [Compound 161, 1-{2-Chloro-4-[7-(3-chloro-propoxy)-6-methoxy-quinolin-4-yloxy]-phenyl}-3-(3,3-dimethyl-butyl)-urea], the pIC50 falls from 7.60 to 6.72 (0.88 log units). The first is the more potent here.

`COc1cc2c(Oc3ccc(NC(=O)NCCC(C)(C)C)cc3)ccnc2cc1OCCCN1CCN(C)CC1` [Compound 156, 1-(3,3-Dimethyl-butyl)-3-(4-{6-methoxy-7-[3-(4-methyl-piperazin-1-yl)-propoxy]-quinolin-4-yloxy}-phenyl)-urea hydrochloride] and `COc1cc2c(Oc3ccc(NC(=O)NCCC(C)(C)C)cc3)ccnc2cc1OCCCCN1CCN(C)CC1` [Compound 159, 1-(3,3-Dimethyl-butyl)-3-(4-{6-methoxy-7-[4-(4-methyl-piperazin-1-yl)-butoxy]-quinolin-4-yloxy}-phenyl)-urea hydrochloride] are within 0.2 log units of each other in pIC50: 7.72 for the first, 7.58 for the second.

`COc1cc2c(Oc3ccc(NC(=O)NCCC(C)(C)C)cc3)ccnc2cc1OCCCCN1CCCCC1` [Compound 157, 1-(3,3-Dimethyl-butyl)-3-{4-[6-methoxy-7-(4-piperidin-1-yl-butoxy)-quinolin-4-yloxy]-phenyl}-urea hydrochloride] and `COc1cc2c(Oc3ccc(NC(=O)NCCC(C)(C)C)cc3)ccnc2cc1OCCCCN1CCOCC1` [Compound 158, 1-(3,3-Dimethyl-butyl)-3-{4-[6-methoxy-7-(4-morpholin-4-yl-butoxy)-quinolin-4-yloxy]-phenyl}-urea hydrochloride] are within 0.2 log units of each other in pIC50: 7.55 for the first, 7.49 for the second.
